Source: paper PMC6364417, “Kinase inhibitor library screening identifies synergistic drug combinations effective in sensitive and resistant melanoma cells” (Journal of Experimental & Clinical Cancer Research : CR, 2019)

Key:
Test in all cases: Kinase inhibitor library screening, PrestoBlue cell viability, 1 or 10 μM, 72 h
[1] = tested on: A375-XP cells (Vemurafenib-resistant); conditions: for viability at 1 µM / viability at 10 µM: Homo sapiens, A-375, 72 h; for viability at 1 µM: read-out: cell viability, A375 XP, 1μΜ; for viability at 10 µM: read-out: cell viability, A375 XP, 10μΜ; for Cell viability in kinase inhibitor library screening, A375 XP, 1μΜ / Cell viability in kinase inhibitor library screening, A375 XP, 10μΜ: 72 h
Method: (§1) After 72 h of treatment, cell viability was assessed using the PrestoBlue Cell Viability Reagent (ThermoFisher Scientific). Measurements were performed with the CLARIOstar Monochromator microplate reader (BMG Labtech).
(§2) Kinase inhibitor library screening. […] Each cell line was treated in its sensitive form (parental), and also as 2 resistant derivatives, which were made resistant to either Vemurafenib (XP) or Dabrafenib (GP). Drugs were added at 2 different concentrations, 1 and 10 μM, for 72 h and cell viability was assessed using the PrestoBlue Cell Viability assay. Results are depicted as % viability compared to untreated cells. Each cell line was analyzed at least in duplicate. […] (XLSX 95 kb)

501Mel cells (parental) = conditions: 72 h; for viability at 1 µM / viability at 10 µM: Homo sapiens; for viability at 1 µM: read-out: cell viability, 501Mel Parental, 1μΜ; for viability at 10 µM: read-out: cell viability, 501Mel Parental, 10μΜ
Method: as §1, §2

[2] = tested on: IGR37-XP cells (Vemurafenib-resistant); conditions: for viability at 1 µM / viability at 10 µM: Homo sapiens, IGR-37, 72 h; for viability at 1 µM: read-out: cell viability, IGR37 XP, 1μΜ; for viability at 10 µM: read-out: cell viability, IGR37 XP, 10μΜ; for Cell viability in kinase inhibitor library screening, IGR37 XP, 10μΜ / Cell viability in kinase inhibitor library screening, IGR37 XP, 1μΜ: 72 h; for Cell viability in kinase inhibitor library screening, IGR37 XP, 1μΜ: in %
Method: as §1, §2

[3] = tested on: IGR37-GP cells (Dabrafenib-resistant); conditions: for viability at 1 µM / viability at 10 µM: Homo sapiens, IGR-37, 72 h; for viability at 1 µM: read-out: cell viability, IGR37 GP, 1μΜ; for viability at 10 µM: read-out: cell viability, IGR37 GP, 10μΜ
Method: as §1, §2

[4] = tested on: 501Mel-XP cells (Vemurafenib-resistant); conditions: 72 h; for viability at 1 µM / viability at 10 µM: Homo sapiens; for viability at 1 µM: read-out: cell viability, 501Mel XP, 1μΜ; for viability at 10 µM: read-out: cell viability, 501Mel XP, 10μΜ
Method: as §1, §2

[5] = tested on: 501Mel-GP cells (Dabrafenib-resistant); conditions: 72 h; for viability at 1 µM / viability at 10 µM: Homo sapiens; for viability at 1 µM: read-out: cell viability, 501Mel GP, 1μΜ; for viability at 10 µM: read-out: cell viability, 501Mel GP, 10μΜ
Method: as §1, §2

IGR37 cells (parental) = conditions: for viability at 1 µM / viability at 10 µM: Homo sapiens, IGR-37, 72 h; for viability at 1 µM: read-out: cell viability, IGR37 Parental, 1μΜ; for viability at 10 µM: read-out: cell viability, IGR37 Parental, 10μΜ
Method: as §1, §2

[6] = tested on: A375-GP cells (Dabrafenib-resistant); conditions: for viability at 1 µM / viability at 10 µM: Homo sapiens, A-375, 72 h; for viability at 1 µM: read-out: cell viability, A375 GP, 1μΜ; for viability at 10 µM: read-out: cell viability, A375 GP, 10μΜ
Method: as §1, §2

A375 cells (parental) = conditions: for viability at 1 µM / viability at 10 µM: Homo sapiens, A-375, 72 h; for viability at 1 µM: read-out: cell viability, A375 Parental, 1μΜ; for viability at 10 µM: read-out: cell viability, A375 Parental, 10μΜ; for Cell viability in kinase inhibitor library screening, A375 Parental, 10μΜ / Cell viability in kinase inhibitor library screening, A375 Parental, 1μΜ: 72 h
Method: as §1, §2

Structure (SMILES): C[C@@H]1COC(Nc2ccc3ncnc(Nc4ccc(OCc5nccs5)c(Cl)c4)c3c2)=N1 [ARRY334543]
- viability at 1 µM [1]: 107%
- viability at 10 µM [1]: 85.8%
- viability at 1 µM (501Mel cells (parental)): 97.9%
- viability at 10 µM (501Mel cells (parental)): 87.3%
- viability at 1 µM [2]: 71.6%
- viability at 10 µM [2]: 11.7%
- viability at 1 µM [3]: 89.4%
- viability at 10 µM [3]: 33%
- viability at 1 µM [4]: 118%
- viability at 10 µM [4]: 57.2%
- viability at 1 µM [5]: 101%
- viability at 10 µM [5]: 86.4%
- viability at 1 µM (IGR37 cells (parental)): 102%
- viability at 10 µM (IGR37 cells (parental)): 85.9%
- viability at 1 µM [6]: 101%
- viability at 10 µM [6]: 83.2%
- viability at 1 µM (A375 cells (parental)): 103%
- viability at 10 µM (A375 cells (parental)): 89.3%

Structure (SMILES): O=C(NC[C@H](O)CO)c1ccncc1Nc1ccc(I)cc1F [AS703026]
- viability at 1 µM [1]: 15.5%
- viability at 10 µM [1]: 9.6%
- viability at 1 µM (501Mel cells (parental)): 50.1%
- viability at 10 µM (501Mel cells (parental)): 57.6%
- viability at 1 µM [2]: 52.7%
- viability at 10 µM [2]: 18.8%
- viability at 1 µM [3]: 77%
- viability at 10 µM [3]: 59.4%
- viability at 1 µM [4]: 79.8%
- viability at 10 µM [4]: 56%
- viability at 1 µM [5]: 95.8%
- viability at 10 µM [5]: 78.7%
- viability at 1 µM (IGR37 cells (parental)): 33.3%
- viability at 10 µM (IGR37 cells (parental)): 35.4%
- viability at 1 µM [6]: 18.8%
- viability at 10 µM [6]: 15.8%
- viability at 1 µM (A375 cells (parental)): 18.5%
- viability at 10 µM (A375 cells (parental)): 19.6%

Structure (SMILES): O=C1NC(=O)/C(=C/c2ccc(-c3ccc(F)cc3O)o2)S1 [AS-252424]
- Cell viability in kinase inhibitor library screening, A375 XP, 1μΜ [1]: 115.1
- Cell viability in kinase inhibitor library screening, A375 XP, 10μΜ [1]: 96.7
- Cell viability in kinase inhibitor library screening, 501Mel Parental, 1μΜ (501Mel cells (parental); 501Mel Parental, 1μΜ, in %): 112.3
- Cell viability in kinase inhibitor library screening, 501Mel Parental, 10μΜ (501Mel cells (parental); 501Mel Parental, in %): 97.9
- Cell viability in kinase inhibitor library screening, IGR37 XP, 10μΜ [2]: 42.3%
- Cell viability in kinase inhibitor library screening, IGR37 XP, 1μΜ [2]: 93.7
- Cell viability in kinase inhibitor library screening, IGR37 GP, 10μΜ ([3]; IGR37 GP, 72 h): 75.1%
- Cell viability in kinase inhibitor library screening, 501Mel XP, 1μΜ ([4]; 501Mel XP, 1μΜ, in %): 109.3
- Cell viability in kinase inhibitor library screening, 501Mel XP, 10μΜ ([4]; 501Mel XP, in %): 84.7
- Cell viability in kinase inhibitor library screening, 501Mel GP, 1μΜ ([5]; 501Mel GP, 1μΜ, in %): 105.9
- Cell viability in kinase inhibitor library screening, 501Mel GP, 10μΜ ([5]; 501Mel GP, in %): 85.7
- Cell viability in kinase inhibitor library screening, IGR37 Parental, 1μΜ (IGR37 cells (parental); IGR37 Parental, 1μΜ, 72 h, in %): 103.0
- Cell viability in kinase inhibitor library screening, IGR37 Parental, 10μΜ (IGR37 cells (parental); IGR37 Parental, 72 h, in %): 94.5
- Cell viability in kinase inhibitor library screening, A375 GP, 1μΜ ([6]; A375 GP, 1μΜ, 72 h): 107.9
- Cell viability in kinase inhibitor library screening, A375 GP, 10μΜ ([6]; A375 GP, 72 h): 90.3
- Cell viability in kinase inhibitor library screening, A375 Parental, 10μΜ (A375 cells (parental)): 82.9
- Cell viability in kinase inhibitor library screening, A375 Parental, 1μΜ (A375 cells (parental)): 107.2

Structure (SMILES): O=C1NC(=O)/C(=C/c2ccc3c(c2)OC(F)(F)O3)S1 [AS-604850]
- Cell viability in kinase inhibitor library screening, A375 XP, 1μΜ [1]: 109.0
- Cell viability in kinase inhibitor library screening, A375 XP, 10μΜ [1]: 106.1
- Cell viability in kinase inhibitor library screening, 501Mel Parental, 10μΜ (501Mel cells (parental); 501Mel Parental, in %): 104.4
- Cell viability in kinase inhibitor library screening, IGR37 XP, 10μΜ [2]: 80.4%
- Cell viability in kinase inhibitor library screening, IGR37 XP, 1μΜ [2]: 91.9
- Cell viability in kinase inhibitor library screening, IGR37 GP, 10μΜ ([3]; IGR37 GP, 72 h): 98%
- Cell viability in kinase inhibitor library screening, IGR37 GP, 1μΜ ([3]; IGR37 GP, 1μΜ, 72 h, in %): 103.0
- Cell viability in kinase inhibitor library screening, 501Mel XP, 10μΜ ([4]; 501Mel XP, in %): 90.1
- Cell viability in kinase inhibitor library screening, 501Mel GP, 10μΜ ([5]; 501Mel GP, in %): 91.8
- Cell viability in kinase inhibitor library screening, IGR37 Parental, 10μΜ (IGR37 cells (parental); IGR37 Parental, 72 h, in %): 108.6
- Cell viability in kinase inhibitor library screening, A375 GP, 10μΜ ([6]; A375 GP, 72 h): 98.8
- Cell viability in kinase inhibitor library screening, A375 Parental, 10μΜ (A375 cells (parental)): 95.5
- Cell viability in kinase inhibitor library screening, A375 Parental, 1μΜ (A375 cells (parental)): 104.7
